Assay results from patent US20120136005A1, “E[…] THE TREATMENT OF ANXIETY” (MERZ PHARMA GmbH & CO. KGaA, priority 2009, published 2012).

Experiments:
[1] = target: T1, human serotonin 5-HT1a receptor (Homo sapiens, UniProt P08908); test: GTPγS assay, recombinant CHO-K1 membranes; type: biochemical; settings: human recombinant cell lines; FIG. 1
T1 construct: expressed in transfected cells; host or cells: CHO-K1 (membranes)
T1 sequence (P08908 1-422): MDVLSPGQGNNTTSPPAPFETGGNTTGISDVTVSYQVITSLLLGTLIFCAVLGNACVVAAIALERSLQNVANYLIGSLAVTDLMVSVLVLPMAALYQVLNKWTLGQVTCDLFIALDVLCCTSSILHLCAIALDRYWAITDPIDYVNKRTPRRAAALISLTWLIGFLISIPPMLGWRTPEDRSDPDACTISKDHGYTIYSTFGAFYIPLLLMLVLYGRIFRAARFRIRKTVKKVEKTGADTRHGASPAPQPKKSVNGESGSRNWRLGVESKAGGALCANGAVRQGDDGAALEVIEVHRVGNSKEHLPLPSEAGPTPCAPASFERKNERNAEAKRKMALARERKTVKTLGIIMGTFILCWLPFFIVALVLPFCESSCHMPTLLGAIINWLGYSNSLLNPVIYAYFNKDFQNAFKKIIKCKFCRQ
Experimental: (§1) Eltoprazine was tested for activity on the human serotonin 5-HT1a and 5-HT1b receptors using a GTPγS assay. Recombinant membranes obtained from CHO-K1 cells expressing either the 5-HT1a or 5-HT1b receptors were mixed with GDP (volume:volume) and incubated for at least 15 min on ice. In parallel, GTPγ[35S] was mixed with the beads (volume:volume) just before starting the reaction. The following reagents were successively added in the wells of an Optiplate (Perkin Elmer): 50 μl of test compound, 20 μl of the membranes:GDP mix, 10 μl of assay buffer (for agonist testing) and 20 μl of the GTPγ[35S]:beads mix. The plates were covered with a top seal, shaken on an orbital shaker for 2 min, and then incubated for 1 h at room temperature. Then the plates were centrifuged for 10 min at 2000 rpm, incubated at room temperature 1 h and counted for 1 min/well with a PerkinElmer TopCount reader.

[2] = target: T2, human serotonin 5-HT1b receptor (Homo sapiens, UniProt P28222); test: GTPγS assay, recombinant CHO-K1 membranes; type: biochemical; settings: human recombinant cell lines; FIG. 1
T2 construct: expressed in transfected cells; host or cells: CHO-K1 (membranes)
T2 sequence (P28222 whole entry): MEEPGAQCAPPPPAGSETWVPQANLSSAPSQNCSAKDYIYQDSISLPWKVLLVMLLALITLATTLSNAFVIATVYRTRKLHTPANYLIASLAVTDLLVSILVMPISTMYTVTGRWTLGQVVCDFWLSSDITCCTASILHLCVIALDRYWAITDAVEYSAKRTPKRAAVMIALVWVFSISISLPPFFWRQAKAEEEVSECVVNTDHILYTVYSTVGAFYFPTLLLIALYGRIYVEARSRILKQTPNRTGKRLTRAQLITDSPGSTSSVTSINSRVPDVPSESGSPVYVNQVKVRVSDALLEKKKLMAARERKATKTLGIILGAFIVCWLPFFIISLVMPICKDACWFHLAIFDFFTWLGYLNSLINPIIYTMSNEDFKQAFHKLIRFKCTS
Experimental: as §1

5-HT1b receptor = 5-HT1b receptor (Rattus norvegicus, UniProt P28564); settings: Schipper et al. 1990; cited from earlier work
5-HT1b receptor, sequence (P28564 whole entry): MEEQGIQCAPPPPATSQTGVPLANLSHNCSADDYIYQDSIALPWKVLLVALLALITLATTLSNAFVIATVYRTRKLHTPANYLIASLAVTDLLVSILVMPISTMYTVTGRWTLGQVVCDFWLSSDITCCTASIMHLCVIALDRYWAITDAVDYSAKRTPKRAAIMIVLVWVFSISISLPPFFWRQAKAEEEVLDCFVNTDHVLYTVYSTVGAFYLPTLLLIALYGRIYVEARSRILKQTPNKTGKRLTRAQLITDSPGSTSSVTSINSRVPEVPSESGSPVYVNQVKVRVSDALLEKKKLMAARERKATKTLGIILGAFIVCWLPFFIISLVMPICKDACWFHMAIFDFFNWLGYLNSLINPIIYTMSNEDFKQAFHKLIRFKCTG

[3] = tested on: 5-HT2c (initially designated 5-HT1c); settings: Schipper et al. 1990; cited from earlier work
patients = settings: clinical trials, de Koning et al. 1994; cited from earlier work
[4] = tested on: unilaterally 6-OHDA-lesioned rats; test: L-DOPA induced dyskinesia (AIM scores) in 6-OHDA-lesioned rat model of Parkinson's disease; type: in vivo, Sprague Dawley rats; settings: eltoprazine hydrochloride 0.08, 0.3, 1.25 and 5 mg/kg s.c.; after 21 days of L-DOPA; dose-dependent; FIG. 2
Experimental: Male Sprague Dawley rats (Elevage Janvier, Le Genest Saint Isle, France) weighing between 220 and 250 g at the beginning of the study are used in these experiments. They are housed under a 12 h light/dark cycle with free access to standard pelleted food and tap water. Animal treatment and experimental procedures are approved by local ethical committees (Regierungspräsidium Darmstadt; Germany).
Dopamine-denervating lesions are performed on rats anaesthetized with a 5:1 mixture of ketamine and xylazine (1 ml/kg, i.p.). […] The animals' turning behaviour is recorded in an automated rotometer (TSE Rotameter System, TSE-Systems GmbH, Bad Homburg, Germany) over a 90 min period after the intraperitoneal (i.p.) injection of 2.5 mg/kg dexamphetamine sulphate dissolved in saline. […]
In order to evaluate the severity of LID, AIMs are recorded every second day as described by Cenci et al. (1998). […] Each rat is scored on a severity scale from 0 to 4 based on its frequency and persistence (1=occasional; 2=frequent; 3=continuous but interrupted by sensory distraction; 4=continuous, severe and not interrupted by sensory distraction). […]

[5] = Rodgers et al., 1992; Rocha et al., 1994; cited from earlier work

c1cc2c(c(N3CCNCC3)c1)OCCO2 [eltoprazine, 1-(2,3-dihydro-1,4-benzodioxin-5-yl)piperazine]
functional activity at 5-HT1a receptor [1]: partial agonistic action
functional activity at 5-HT1b receptor [2]: partial agonistic action
effect on 5-HT1b receptor (5-HT1b receptor): agonistic effect
effect on 5-HT2c [3]: antagonistic
clinical safety (patients): clinically safe
effect on AIM scores [4]: significantly reverses
effect in the elevated plus maze, previous data [5]: anxiogenic-like effects
